Data: PubChem BioAssay (NCI)
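1) Cells in 96-well plates. 2) Compound, 48 h, 5 concentrations. 3) Linear interpolation between surrounding doses. 4) Unreached endpoint = highest concentration. GI50 is the concentration that inhibits growth by half. Definition used: TGI = concentration required for complete inhibition of growth.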

What was measured:
Assay in all cases: DTP human tumour cell line panel, 48 h
OVCAR-8 ovarian = test system: OVCAR-8 ovarian
SK-MEL-2 melanoma = test system: SK-MEL-2 melanoma
OVCAR-4 ovarian = test system: OVCAR-4 ovarian
OVCAR-5 ovarian = test system: OVCAR-5 ovarian
SK-MEL-28 melanoma = test system: SK-MEL-28 melanoma
A549 NSCLC = test system: A549 NSCLC
LOX IMVI melanoma = test system: LOX IMVI melanoma
HCT-15 colon = test system: HCT-15 colon
HOP-62 NSCLC = test system: HOP-62 NSCLC
SNB-75 CNS = test system: SNB-75 CNS
SN12C renal = test system: SN12C renal
PC-3 prostate = test system: PC-3 prostate
CCRF-CEM leukemia = test system: CCRF-CEM leukemia
UO-31 renal = test system: UO-31 renal
A498 renal = test system: A498 renal
MOLT-4 leukemia = test system: MOLT-4 leukemia
M14 melanoma = test system: M14 melanoma
OVCAR-3 ovarian = test system: OVCAR-3 ovarian
DU-145 prostate = test system: DU-145 prostate
NCI-H23 lung = test system: NCI-H23 lung
HCT-116 colon = test system: HCT-116 colon
SK-MEL-5 melanoma = test system: SK-MEL-5 melanoma
MDA-MB-231 breast = test system: MDA-MB-231 breast
BT-549 breast = test system: BT-549 breast
K-562 leukemia = test system: K-562 leukemia
COLO 205 colon = test system: COLO 205 colon
SNB-19 CNS = test system: SNB-19 CNS
SF-268 CNS = test system: SF-268 CNS
NCI-H522 lung = test system: NCI-H522 lung
786-0 renal = test system: 786-0 renal
SR leukemia = test system: SR leukemia
IGROV1 ovarian = test system: IGROV1 ovarian
SF-295 CNS = test system: SF-295 CNS
SW-620 colon = test system: SW-620 colon
EKVX NSCLC = test system: EKVX NSCLC
TK-10 renal = test system: TK-10 renal
RPMI-8226 leukemia = test system: RPMI-8226 leukemia
HT29 colon = test system: HT29 colon
KM12 colon = test system: KM12 colon
MALME-3M melanoma = test system: MALME-3M melanoma
UACC-62 melanoma = test system: UACC-62 melanoma
MDA-MB-435 = test system: MDA-MB-435
CAKI-1 renal = test system: CAKI-1 renal
U251 CNS = test system: U251 CNS
HCC-2998 colon = test system: HCC-2998 colon
UACC-257 melanoma = test system: UACC-257 melanoma
HOP-92 NSCLC = test system: HOP-92 NSCLC
RXF 393 renal = test system: RXF 393 renal
HL-60(TB) leukemia = test system: HL-60(TB) leukemia
ACHN renal = test system: ACHN renal
T-47D breast = test system: T-47D breast
SF-539 CNS = test system: SF-539 CNS
NCI/ADR-RES ovarian = test system: NCI/ADR-RES ovarian
NCI-H460 lung = test system: NCI-H460 lung
HS 578T breast = test system: HS 578T breast
NCI-H226 lung = test system: NCI-H226 lung
MCF7 breast = test system: MCF7 breast
SK-OV-3 ovarian = test system: SK-OV-3 ovarian

CC/C(=C(\CC)c1ccc(OCCN(CC)CC)cc1)c1ccc(OCCN(CC)CC)cc1
GI50 (OVCAR-8 ovarian): 5.85 µM
TGI (OVCAR-8 ovarian): 19.3 µM
GI50 (SK-MEL-2 melanoma): 1.9 µM
TGI (SK-MEL-2 melanoma): 7.58 µM
GI50 (OVCAR-4 ovarian): 3.13 µM
TGI (OVCAR-4 ovarian): 12.3 µM
GI50 (OVCAR-5 ovarian): 3.96 µM
TGI (OVCAR-5 ovarian): 17.7 µM
GI50 (SK-MEL-28 melanoma): 1.67 µM
TGI (SK-MEL-28 melanoma): 3.37 µM
GI50 (A549 NSCLC): 3.81 µM
TGI (A549 NSCLC): 15.5 µM
GI50 (LOX IMVI melanoma): 1.19 µM
TGI (LOX IMVI melanoma): 5.5 µM
GI50 (HCT-15 colon): 1.74 µM
TGI (HCT-15 colon): 11.2 µM
GI50 (HOP-62 NSCLC): 1.73 µM
TGI (HOP-62 NSCLC): 4.76 µM
GI50 (SNB-75 CNS): 2.83 µM
TGI (SNB-75 CNS): 11 µM
GI50 (SN12C renal): 5.32 µM
TGI (SN12C renal): 21.3 µM
GI50 (PC-3 prostate): 3.25 µM
TGI (PC-3 prostate): 19.5 µM
GI50 (CCRF-CEM leukemia): 2.51 µM
TGI (CCRF-CEM leukemia): 25 µM
GI50 (UO-31 renal): 0.996 µM
TGI (UO-31 renal): 11.3 µM
GI50 (A498 renal): 0.76 µM
TGI (A498 renal): 3.31 µM
GI50 (MOLT-4 leukemia): 3.62 µM
TGI (MOLT-4 leukemia): 18.2 µM
GI50 (M14 melanoma): 0.771 µM
TGI (M14 melanoma): 2.27 µM
GI50 (OVCAR-3 ovarian): 3.45 µM
TGI (OVCAR-3 ovarian): 16.1 µM
GI50 (DU-145 prostate): 6.05 µM
TGI (DU-145 prostate): 19.2 µM
GI50 (NCI-H23 lung): 5.77 µM
TGI (NCI-H23 lung): 21.8 µM
GI50 (HCT-116 colon): 1.03 µM
TGI (HCT-116 colon): 6.25 µM
GI50 (SK-MEL-5 melanoma): 1.48 µM
TGI (SK-MEL-5 melanoma): 2.86 µM
GI50 (MDA-MB-231 breast): 1.76 µM
TGI (MDA-MB-231 breast): 5.82 µM
GI50 (BT-549 breast): 4.55 µM
TGI (BT-549 breast): 13.9 µM
GI50 (K-562 leukemia): 1.79 µM
TGI (K-562 leukemia): 10.5 µM
GI50 (COLO 205 colon): 1.47 µM
TGI (COLO 205 colon): 3.07 µM
GI50 (SNB-19 CNS): 3.26 µM
TGI (SNB-19 CNS): 10.6 µM
GI50 (SF-268 CNS): 5.43 µM
TGI (SF-268 CNS): 18.3 µM
GI50 (NCI-H522 lung): 1.83 µM
TGI (NCI-H522 lung): 4.67 µM
GI50 (786-0 renal): 1.6 µM
TGI (786-0 renal): 3.66 µM
GI50 (SR leukemia): 1.38 µM
TGI (SR leukemia): 6.55 µM
GI50 (IGROV1 ovarian): 3.3 µM
TGI (IGROV1 ovarian): 22.1 µM
GI50 (SF-295 CNS): 1.37 µM
TGI (SF-295 CNS): 3.91 µM
GI50 (SW-620 colon): 2.33 µM
TGI (SW-620 colon): 7.79 µM
GI50 (EKVX NSCLC): 4.02 µM
TGI (EKVX NSCLC): 20.4 µM
GI50 (TK-10 renal): 3.34 µM
TGI (TK-10 renal): 12.1 µM
GI50 (RPMI-8226 leukemia): 1.42 µM
TGI (RPMI-8226 leukemia): 4.63 µM
GI50 (HT29 colon): 0.0759 µM
TGI (HT29 colon): 3.78 µM
GI50 (KM12 colon): 2.01 µM
TGI (KM12 colon): 12.6 µM
GI50 (MALME-3M melanoma): 1.81 µM
TGI (MALME-3M melanoma): 5.87 µM
GI50 (UACC-62 melanoma): 1.92 µM
TGI (UACC-62 melanoma): 4.29 µM
GI50 (MDA-MB-435): 1.86 µM
TGI (MDA-MB-435): 7.28 µM
GI50 (CAKI-1 renal): 3.17 µM
TGI (CAKI-1 renal): 15.7 µM
GI50 (U251 CNS): 1.87 µM
TGI (U251 CNS): 8.99 µM
GI50 (HCC-2998 colon): 5.57 µM
TGI (HCC-2998 colon): 18.9 µM
GI50 (UACC-257 melanoma): 1.23 µM
TGI (UACC-257 melanoma): 2.82 µM
GI50 (HOP-92 NSCLC): 0.879 µM
TGI (HOP-92 NSCLC): 4.72 µM
GI50 (RXF 393 renal): 1.63 µM
TGI (RXF 393 renal): 3.75 µM
GI50 (HL-60(TB) leukemia): 3.8 µM
TGI (HL-60(TB) leukemia): 9.84 µM
GI50 (ACHN renal): 3.99 µM
TGI (ACHN renal): 18.7 µM
GI50 (T-47D breast): 2.65 µM
TGI (T-47D breast): 6.73 µM
GI50 (SF-539 CNS): 1.29 µM
TGI (SF-539 CNS): 3.85 µM
GI50 (NCI/ADR-RES ovarian): 4.89 µM
TGI (NCI/ADR-RES ovarian): 17.9 µM
GI50 (NCI-H460 lung): 3.86 µM
TGI (NCI-H460 lung): 15.3 µM
GI50 (HS 578T breast): 1.74 µM
TGI (HS 578T breast): 7.09 µM
GI50 (NCI-H226 lung): 3.87 µM
TGI (NCI-H226 lung): 13.7 µM
GI50 (MCF7 breast): 2.81 µM
TGI (MCF7 breast): 7.99 µM
GI50 (SK-OV-3 ovarian): 3.48 µM
TGI (SK-OV-3 ovarian): 12 µM
